Like-named read-outs stand apart in the source and are kept apart here.
Legend:
[1] = test system: protéine tyrosine hydroxylase (TH); experiment: Induction of tyrosine hydroxylase in the locus coeruleus of mice (immunodetection and image analysis of brain sections); format: in vivo, souris Balb/C; conditions: i.p. 20 mg/kg, single injection, 3 days after, % par rapport à la valeur moyenne du groupe témoin; for quantité de TH au niveau du LC, coupe 1: coupe 1 du LC (sens antérieur vers postérieur); for quantité de TH au niveau du LC, coupe 2: coupe 2 du LC (sens antérieur vers postérieur); for quantité de TH au niveau du LC, coupe 3: coupe 3 du LC (sens antérieur vers postérieur); for quantité de TH au niveau du LC, coupe 4: coupe 4 du LC (sens antérieur vers postérieur); for quantité de TH au niveau du LC, coupe 5: coupe 5 du LC (sens antérieur vers postérieur); for quantité de TH au niveau du LC, coupe 6: coupe 6 du LC (sens antérieur vers postérieur); for quantité de TH au niveau du LC, coupe 7: coupe 7 du LC (sens antérieur vers postérieur); for quantité de TH au niveau du LC, coupe 8: coupe 8 du LC (sens antérieur vers postérieur)
From the text: Il est recherché, parmi les dérivés, ceux qui sont capables d'induire une augmentation de la protéine tyrosine hydroxylase (TH) dans le cerveau de la souris Balb/C, au niveau du locus coeruleus (LC).
Les animaux utilisés sont des souris mâles de la lignée pure Balb/C (Charles River Laboratories), âgées de 7 à 8 semaines au moment du traitement.
Les souris reçoivent une injection unique par voie intrapéritonéale du composé à tester, dissous dans une solution d'HCl 0,04 M (contrôle correspondant : HCl […]) si le composé est suffisamment soluble, ou dans l'huile d'olive 90 % / DMSO 10 % (contrôle correspondant : huile d'olive 90 % / DMSO 10 %) pour les composés insolubles en milieu aqueux.
Trois jours après l'injection de chaque molécule, tous les animaux sont sacrifiés par décapitation. Les cerveaux extraits sont ensuite congelés dans de l'azote liquide et conservés à -80° C.
Des coupes coronales de 8 microns d'épaisseur sont pratiquées le long de l'axe postéro-antérieur du LC et fixées. Les coupes sont transférées sur membranes Immobilon-P. La TH est mesurée par immunodétection et analyse d'image.

[2] = Prediction of metabolic stability on liver microsomes; format: in vitro ADME; conditions: 10^-7 M, 0,33 mg prot/ml, NADPH, 0-60 minutes
Procedure: La prédiction de stabilité métabolique est testée par incubation des dérivés à la concentration de 10^-7 M en présence de microsomes hépatiques de souris, rat ou d'homme (0,33 mg prot/ml). Après addition de NADPH (nicotinamide adénine dinucléotide phosphate, forme réduite), des prélèvements sont réalisés à 0, 5, 15, 30 et 60 minutes. La réaction enzymatique est arrêtée avec le méthanol (VN). La protéine est précipitée par centrifugation et le surnageant analysé par LC-MS-MS. La bonne stabilité métabolique de ces dérivés permet d'envisager un traitement per os. TABLEAU III

récepteurs sigma (σ) = experiment: Receptor affinity, displacement of labelled specific ligand (haloperidol); format: binding
From the text: (§1) L'affinité pour les récepteurs est déterminée selon les méthodes habituelles de relation entre le ligand spécifique et le récepteur, qui peut être d'origine animale ou un recombinant humain. Elle a été déterminée par la méthode du déplacement du ligand spécifique marqué par le composé étudié, et exprimée par la constante de dissociation Ki. L'affinité réceptorielle pour 28 récepteurs classiques a ainsi été étudiée. L'étude montre que l'induction de TH observée ne passe pas par une affinité vis-à-vis des récepteurs habituellement touchés par les produits psychotropes, comme les récepteurs adrénergiques alpha (de type α2), 5HT (de type 5HT2A), dopaminergiques (de type D1 et D2). Quelques dérivés montrent une affinité non négligeable pour les récepteurs sigma (σ) (ligand halopéridol) ou muscarinique (M). TABLEAU II

5HT2A = 5HT2A (Homo sapiens, UniProt P28223); experiment: Receptor affinity, displacement of labelled specific ligand; format: binding
Sequence of 5HT2A (P28223 whole entry, species assumed): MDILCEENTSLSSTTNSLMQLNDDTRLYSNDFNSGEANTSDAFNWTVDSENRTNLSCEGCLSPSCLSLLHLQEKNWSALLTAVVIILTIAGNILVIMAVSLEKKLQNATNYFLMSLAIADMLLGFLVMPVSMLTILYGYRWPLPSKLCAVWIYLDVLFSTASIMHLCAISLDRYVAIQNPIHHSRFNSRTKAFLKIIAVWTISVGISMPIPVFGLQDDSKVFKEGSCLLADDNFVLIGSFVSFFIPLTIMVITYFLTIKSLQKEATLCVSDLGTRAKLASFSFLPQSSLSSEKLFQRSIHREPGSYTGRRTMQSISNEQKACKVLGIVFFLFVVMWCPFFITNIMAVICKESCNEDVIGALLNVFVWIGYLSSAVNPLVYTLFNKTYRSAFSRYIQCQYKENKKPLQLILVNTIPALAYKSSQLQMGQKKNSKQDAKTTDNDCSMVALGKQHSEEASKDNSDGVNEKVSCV
From the text: as §1

[3] = test system: récepteurs adrénergiques alpha (de type α2); experiment: as above; format: binding; conditions: concentration 10^-5 M
From the text: as §1

D1 = D1 (Homo sapiens, UniProt P21728); experiment: as above; format: binding; conditions: concentration 10^-5 M; read-out: % d'inhibition D1
Sequence of D1 (P21728 whole entry): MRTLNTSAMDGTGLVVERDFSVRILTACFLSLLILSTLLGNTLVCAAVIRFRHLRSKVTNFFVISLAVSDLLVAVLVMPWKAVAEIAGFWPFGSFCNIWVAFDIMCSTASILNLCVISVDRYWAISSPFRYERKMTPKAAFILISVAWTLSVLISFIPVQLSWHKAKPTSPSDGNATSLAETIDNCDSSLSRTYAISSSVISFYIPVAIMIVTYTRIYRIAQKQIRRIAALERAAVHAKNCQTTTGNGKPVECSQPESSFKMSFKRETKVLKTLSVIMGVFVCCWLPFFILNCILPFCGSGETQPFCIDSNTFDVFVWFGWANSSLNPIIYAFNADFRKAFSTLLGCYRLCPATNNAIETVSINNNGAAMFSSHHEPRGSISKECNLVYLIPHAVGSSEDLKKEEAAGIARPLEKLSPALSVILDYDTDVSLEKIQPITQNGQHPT
From the text: as §1

Row | Structure (SMILES) | quantité de TH au niveau du LC, coupe 1 [1] | quantité de TH au niveau du LC, coupe 2 [1] | quantité de TH au niveau du LC, coupe 3 [1] | quantité de TH au niveau du LC, coupe 4 [1] | quantité de TH au niveau du LC, coupe 5 [1] | quantité de TH au niveau du LC, coupe 6 [1] | quantité de TH au niveau du LC, coupe 7 [1] | quantité de TH au niveau du LC, coupe 8 [1] | % de prédiction de stabilité métabolique sur microsomes hépatiques ([2]; Homme) | % de prédiction de stabilité métabolique sur microsomes hépatiques ([2]; Rat) | % de prédiction de stabilité métabolique sur microsomes hépatiques ([2]; Souris) | other results
1 | O=C1NN2c3ccccc3C[C@H]2[C@@H]2NCCC[C@H]12 (racemic) [Exemple 8, (4aSR,11aSR, 11bRS)-1,2,3,4,4a,11,11a,11b-Octahydro-1,6,6a-triazabenzo[a]fluorén-5-one] | 59% | 61% | 59% | 50% | 33% | 17% | 9% | 5% | 80% | 52% | 86% | –
2 | C=CCN1CCC[C@@H]2C(=O)N3c4ccc(OC)cc4C[C@@H]3[C@H]21 (racemic) [Exemple 19, (4aSR,11aRS,11bSR)-1-Allyl-9-méthoxy-1,2,3,4,4a,11,11a,11b-octahydro-pyrido[2',3':3,4]pyrrolo[1,2-a]indol-5-one] | 49% | 48% | 55% | 50% | 21% | 15% | 6% | 9% | – | – | – | % d'inhibition σ (récepteurs sigma (σ); concentration 10^-5 M): 36%; % d'inhibition σ (récepteurs sigma (σ); concentration 10^-7 M): 10%
3 | CN1CCC[C@@H]2C(=O)N3c4ccc(Cl)cc4C[C@H]3[C@@H]21 (racemic) [Exemple 27, (4aSR,11aSR,11bRS)-9-Chloro-1-méthyl-1,2,3,4,4a,11,11a,11b-octahydropyrido[2',3':3,4]pyrrolo[1,2-a]indol-5-one] | 55% | 67% | 54% | 46% | 26% | 29% | 3% | 5% | – | – | – | inhibition at 10 µM (5HT2A; read-out: % d'inhibition 5HT2A, concentration 10^-5 M): 84%; % d'inhibition α2 [3]: 10%; % d'inhibition σ (récepteurs sigma (σ); concentration 10^-5 M): 10%
4 | O=C1[C@H]2CCCN[C@@H]2[C@H]2Cc3ccccc3N12 (racemic) [Exemple 47, (4aSR,11aRS,11bSR)-1,2,3,4,4a,11,11a,11b-Octahydropyrido [2',3':3,4]pyrrolo[1,2-a]indol-5-one] | – | – | – | – | – | – | – | – | 86% | 85% | 99% | –
5 | CN1CCC[C@@H]2C(=O)N3c4ccccc4C[C@H]3[C@@H]21 [Exemple 3, (4aSR, 11aSR, 11bRS)-1-Méthyl 1,2,3,4,4a,11,11a,11b-octahydropyrido[2'3':3,4]pyrrolo[1,2-a]indol-5-one] | 104% | 97% | 69% | 58% | 49% | 31% | 10% | 8% | 59% | 31% | 61% | inhibition at 10 µM (5HT2A; concentration 10^-5 M, read-out: % d'inhibition 5HT2A): 84%; inhibition at 10 µM (D1): 39%
6 | C=CCN1CCC[C@@H]2C(=O)N3c4ccccc4C[C@@H]3[C@H]21 [Exemple 43, (4aS,11aR,11bS)-1-Allyl-1,2,3,4,4a,11,11a,11b-octahydropyrido[2',3':3,4]pyrrolo[1,2-a]indol-5-one] | – | – | – | – | – | – | 9% | – | – | – | – | quantité de TH au niveau du LC, coupe 1 ([1]; listed as Ex.43, 20 mg/kg): 69%; quantité de TH au niveau du LC, coupe 2 ([1]; listed as Ex.43, 20 mg/kg): 88%; quantité de TH au niveau du LC, coupe 3 ([1]; listed as Ex.43, 20 mg/kg): 87%; quantité de TH au niveau du LC, coupe 4 ([1]; listed as Ex.43, 20 mg/kg): 60%; quantité de TH au niveau du LC, coupe 5 ([1]; listed as Ex.43, 20 mg/kg): 36%; quantité de TH au niveau du LC, coupe 6 ([1]; listed as Ex.43, 20 mg/kg): 34%; quantité de TH au niveau du LC, coupe 8 ([1]; listed as Ex.43, 20 mg/kg): 4%
7 | C=CCN1CCC[C@H]2C(=O)N3c4ccccc4C[C@H]3[C@@H]21 [Exemple 44, (4aR,11aS,11bR)-1-allyl-1,2,3,4a,11,11a,11b-octahydropyrido[2':3':3.4]pyrrolo[1,2-a]indol-5-one] | 83% | 99% | 78% | 58% | 38% | 29% | 18% | 3% | – | – | – | –
8 | CN1CCC[C@H]2C(=O)N3c4ccccc4C[C@@H]3[C@H]21 [Exemple 52, (4aR,11aR,11bS)-1-méthyl-1,2,3,4,4a,11,11a,11b-octahydropyrido[2'3':3,4]pyrrolo[1,2-a]indol-5-one] | 69% | 86% | 79% | 77% | 40% | 22% | 12% | 1% | – | – | – | –
